From US20090325874A1, “Inhibition of inositol 1,4,5-triphosphate receptor calcium channel/cytochrome c interactions and uses thereof” (priority 2008, published 2009)

Legend:
[1] = test system: caspase-3 activation in Jurkat cells co-cultured with SW620 cells; assay: Caspase-3 like (DEVDase) activity in Jurkat cells co-cultured with SW620 cells; format: cell-based, human; settings: for Jurkat cell (lymphocyte) apoptosis induced by co-culture with SW620 cells: summary statement, co-culture with Fas ligand-expressing SW620 colon cancer cells; for caspase-3 activation in Jurkat cells: 24 h co-culture with SW620
Description: (§1) Jurkat T-lymphoma (clone E6-1) and SW620 colon adenocarcinoma cells were purchased and cultured according to the guidelines of American Type Culture Collection (ATCC, Manassas, Va.). SW620 cells grow as adherent monolayers, whereas Jurkat cells grow in suspension. Jurkat cells were co-cultured with SW620 cells by exchanging the culture medium of SW620 cells (80 percent confluent in a 10 cm dish) with 10 ml Jurkat medium containing 1×10^6 Jurkat cells. Co-cultures were incubated for 24 h, after which cell death or caspase activity was determined in Jurkat cells. Pre-loading 1,2-bis(o-aminophenoxy)ethane-N,N,N′,N′-tetraacetic acid (BAPTA) or B-IP3RCYT into Jurkat cells was performed for 30 min at room temperature. Free BAPTA-AM or B-IP3RCYT was removed by media exchange prior to addition to SW620 cells. XestC was similarly pre-incubated with Jurkat cells prior to co-culturing, and remained in the culture medium for the duration of the co-culture experiment.
Caspase activity and cell death were determined specifically in Jurkat cells by removing the medium containing the Jurkat cells into a fresh tube. An additional rinse with culture medium was used to fully recover the Jurkat cells. Adherent SW620 cells remained attached to the culture plate after this rinse as determined by light microscopy. Jurkat cells were pelleted by centrifugation at 1000 g and cell death was determined by propidium iodide staining as described (12). Fluorometric determination of DEVDase (caspase-3 like) activity was performed on lysates prepared from Jurkat cells as described (12, 15).

[2] = test system: Jurkat cells co-cultured with SW620 cells; assay: Jurkat cell death by propidium iodide staining after co-culture with SW620 cells; format: cell-based, human; parameters: dose or concentration left out as unconfirmed; settings: XestC pre-incubation, 24 h co-culture
Description: as §1
Caspase activity and cell death were determined specifically in Jurkat cells by removing the medium containing the Jurkat cells into a fresh tube. […] Adherent SW620 cells remained attached to the culture plate after this rinse as determined by light microscopy. Jurkat cells were pelleted by centrifugation at 1000 g and cell death was determined by propidium iodide staining as described (12). […]

Structure (SMILES)	Jurkat cell (lymphocyte) apoptosis induced by co-culture with SW620 cells [1]	caspase-3 activation in Jurkat cells ([1]; 100 and 500 nM BAPTA-AM pre-loaded 30 min, p<0.05 vs no pre-treatment)	Jurkat cell death induced by co-culture with SW620 cells [2]	caspase-3 activation in Jurkat cells ([1]; XestC 1 to 20 micromolar, pre-incubated and kept in medium)
O=C(O)CN(CC(=O)O)c1ccccc1OCCOc1ccccc1N(CC(=O)O)CC(=O)O [BAPTA, 1,2-bis(o-aminophenoxy)ethane-N,N,N′,N′-tetraacetic acid]	dose-dependently inhibited Jurkat cell apoptosis			
CC(=O)OCOC(=O)CN(CC(=O)OCOC(C)=O)c1ccccc1OCCOc1ccccc1N(CC(=O)OCOC(C)=O)CC(=O)OCOC(C)=O [BAPTA-AM, aminomethoxy ester form of BAPTA (1,2-bis(o-aminophenoxy)ethane-N,N,N′,N′-tetraacetic acid]		Significant attenuation of caspase-3 activation		
C1CCC[C@H]2CCCN3CC[C@@H](CCCCCC[C@@H]4CCCN5CC[C@@H](CC1)O[C@@H]45)O[C@@H]23 [XestC, Xestospongin C]	dose-dependently inhibited Jurkat cell apoptosis		potently blocked Jurkat cell death	inhibited caspase-3 activation
